Test results from patent US6759413B2, “Use of cox-2 inhibitors as gastroprokinetics” (SmithKline Beecham Corporation, priority 2000, dated 2004).

Experiments:
dogs = assay: Dog model of lower esophageal sphincter pressure (LESP); assay type: in vivo; conditions: 3 days treatment, day 4 am dose; cisapride 0.14 mg/kg TID, celecoxib 1.2 mg/kg BID; FIG. 4
Protocol: Activity In Vivo: Dog Model of Lower Esophageal Sphincter Pressure (LESP) Six adult dogs were instrumented with 14 French esophagostomy tubes. Animals were treated for 3 days with placebo (BID), cisapride (0.14 mg/kg TID) or celecoxib (1.2 mg/kg BID). On day 4 dogs received their am dose of test agent and water perfused manometry catheters were inserted through the esophagostomy tubes. Lower esophageal sphincter pressures (LESPs) were then monitored.

Beagle dogs = assay: Dog model of gastric emptying (solid phase, gamma camera); assay type: in vivo; conditions: po for three days, measured on fourth day after am dosing; cisapride 0.14 mg/kg TID, celecoxib 2.8 mg/kg BID, 8-acetyl compound 1.2 mg/kg BID; FIG. 3
Protocol: Activity In Vivo: Dog Model of Gastric Emptying
Beagle dogs were treated for three days with test agents (po administration): placebo BID; cisapride 0.14 mg/kg TID; celecoxib 2.8 mg/kg BID; or 8-acetyl-3-(4-fluoro-phenyl)-2-(4-methanesulfonyl-phenyl)-imidazo[1,2-a]pyridine 1.2 mg/kg BID. Solid phase gastric emptying was measured on the fourth day following am dosing. The same three animals were used for evaluation of each agent, thus reducing any interanimal variations.
Isotope-labeled solid food was fed to the dogs for their morning meal and animals were then placed under a gamma camera and scans performed over the 24 to 36 hours.

Rats = assay: Rat model of post operative ileus (methylene blue meal transit); assay type: in vivo; conditions: 3 mg/kg intravenous infusion; four hours post-gavage; eight rats; vehicle 49.3±1.3 cm; p<0.05
Protocol: Activity In Vivo: Rat Model of Post Operative Ileus
The selective COX-2 inhibitor 2-(4-ethoxy-phenyl)-3-(4-methanesulfonyl-phenyl)-pyrazolo[1,5-b]pyridazine was evaluated in a rat model of post-operative ileus. The methodology represents a modification of the procedure described by McGill et al, Gastroenterology 116: A1040 (1999).
Rats (fourteen) received 0.5 cc of skimmed milk with methylene blue by gavage. Either vehicle (six rats) or 2-(4-ethoxy-phenyl)-3-(4-methanesulfonyl-phenyl)-pyrazolo[1,5-b]pyridazine (eight rats) was then administered by intravenous infusion. Rats were sacrificed four hours post-gavage and the distance the methylene blue meal traversed the intestine measured. The pylorus was set at 0 cm. With vehicle treatment, the meal traversed 49.3±1.3 cm while with 2-(4-ethoxy-phenyl)-3-(4-methanesulfonyl-phenyl)-pyrazolo[1,5-b]pyridazine (3 mg/kg), the meal traversed 67.8±1.1 cm (p<0.05).

[1] = tested on: strips of canine fundic circular muscle; assay: Smooth muscle in vitro model: fundic circular muscle strips, relaxation/tension change; assay type: cell-based; conditions: 10 μM; n=6-8 strips; FIG. 2
[2] = tested on: strips of canine antrum circular muscles; assay: Smooth muscle in vitro model of gastric propulsion: antral circular muscle strips, acetylcholine-induced contraction; assay type: cell-based; conditions: 10 μM test agent; ACh 1 μM; n=4-8 strips; organ bath, Krebs solution; FIG. 1
Protocol: Smooth Muscle in vitro Model of Gastric Propulsion
Agents which stimulate antral smooth muscle activity would be expected to enhance the rate of gastric emptying by propulsion of contents in the aboral direction. By contrast, fundic relaxation could lead to delayed emptying of the stomach as the upper stomach would serve as a reservoir for gastric contents.
The effects of test agents were evaluated on strips of canine antrum circular muscles (n=4-8 strips) suspended in organ baths bathed with Krebs solution. Following establishment of baseline tension, acetylcholine (“ACh”; 1 μM), indomethacin (10 μM), or 8-acetyl-3-(4-fluoro-phenyl)-2-(4-methanesulfonyl-phenyl)-imidazo[1,2-a]pyridine (“8-Acetyl- . . . ”; 10 μM) were applied and tension changes monitored and recorded on a polygraph.

| Structure (SMILES) | lower esophageal sphincter pressure (LESP) compared to placebo (dogs) | rate of solid phase gastric emptying (Beagle dogs) | distance the methylene blue meal traversed the intestine (pylorus = 0 cm) (Rats) [cm] | relaxation / change in tension of fundic circular muscle [1] | sensitisation of antral circular muscle to acetylcholine-induced contractions [2] |
| --- | --- | --- | --- | --- | --- |
| COc1cc(N)c(Cl)cc1C(=O)NC1CCN(CCCOc2ccc(F)cc2)CC1OC (stereo not shown) [cisapride] | increased LESP | increased the rate of gastric emptying |  |  |  |
| CCOc1ccc(-c2nn3ncccc3c2-c2ccc(S(C)(=O)=O)cc2)cc1 [2-(4-ethoxy-phenyl)-3-(4-methanesulfonyl-phenyl)-pyrazolo[1,5-b]pyridazine] |  |  | 67.8±1.1 |  |  |
| COc1ccc2c(c1)c(CC(=O)O)c(C)n2C(=O)c1ccc(Cl)cc1 [indomethacin] |  |  |  | near complete relaxation | enhanced acetylcholine-induced contractions |
| CC(=O)c1cccn2c(-c3ccc(F)cc3)c(-c3ccc(S(C)(=O)=O)cc3)nc12 [8-acetyl-3-(4-fluoro-phenyl)-2-(4-methanesulfonyl-phenyl)-imidazo[1,2-a]pyridine] |  | increased the rate of gastric emptying |  | only small changes in tension |  |
